# Test results as given in US10363261B2, “Enolase inhibitors and methods of treatment therewith” (Board of Regents, The University of Texas System, priority 2015, dated 2019).
# Several values for one entry are separate records, joined by “and”; a condition that tells them apart may be missing. Identical values can stand only once.
# Assays:
# [1] = system: ENO1-intact glioma cells; assay: Toxicity to ENO1-intact glioma cells during 13C-1 glucose tracing; type: cell-based, human; details: 10 μM, four days
# Method: ^13C-1 glucose tracing by NMR treatment was performed with a concentration of SF2312 (10 μM) that is non-toxic to ENO1-intact glioma cells for four days, led to profound inhibition of glucose consumption (isomeric peaks at 97 and 93 ppm) and lactate production (single peak at 20 ppm) in the media of D423 and Gli56 ENO1 deleted but not ENO1-intact glioma cells (FIG. 33). At the same time, a single peak at 64 ppm became visible in the D423 and Gli56 ENO1-deleted cells treated with SF2312. The most likely origin of this peak is the C-3 atom glycerate, which has a reported ^13C peak of 64 ppm (Spectral Database of Organic Compounds, SDBS No. 18695) and is the atom on which the ^13C label derived from the C-1 atom on glucose is expected. […] Glycerate likely forms in response to enolase inhibition as 2-PGA or 3-PGA accumulate and (the substrates of the enzyme) spontaneously hydrolyze, or alternatively, are dephosphorylated by the action of glycerate kinase (GLYCTK, FIG. 41). These experiments were repeated with D423 ENO1-deleted and isogenic ENO1-rescued control glioma cells with both PhAH and SF2312 (FIGS. 32C & 32D). […] This effect is especially noticeable when expressed as a ratio of ^13C-glycerate to ^13C-lactate, metabolites upstream and downstream of the enolase reaction, respectively (FIG. 32D). […]
# [2] = Hematocrit / hemolytic anemia after IV administration
# Source text: Erythrocytes are sensitive to disruptions in the glycolytic cycle as glycolysis is the cell's only source of energy in the form of ATP.
# [3] = target: ENO2 (Homo sapiens, UniProt P09104); assay: Ligand-induced thermal shift assay on cell lysates (D423 overexpressing ENO2); type: binding; parameters: expressed in transfected cells; host or cells: D423 (D423-MG) human glioma cells, clone pCMV ENO2 1x
# ENO2, sequence (P09104 whole entry): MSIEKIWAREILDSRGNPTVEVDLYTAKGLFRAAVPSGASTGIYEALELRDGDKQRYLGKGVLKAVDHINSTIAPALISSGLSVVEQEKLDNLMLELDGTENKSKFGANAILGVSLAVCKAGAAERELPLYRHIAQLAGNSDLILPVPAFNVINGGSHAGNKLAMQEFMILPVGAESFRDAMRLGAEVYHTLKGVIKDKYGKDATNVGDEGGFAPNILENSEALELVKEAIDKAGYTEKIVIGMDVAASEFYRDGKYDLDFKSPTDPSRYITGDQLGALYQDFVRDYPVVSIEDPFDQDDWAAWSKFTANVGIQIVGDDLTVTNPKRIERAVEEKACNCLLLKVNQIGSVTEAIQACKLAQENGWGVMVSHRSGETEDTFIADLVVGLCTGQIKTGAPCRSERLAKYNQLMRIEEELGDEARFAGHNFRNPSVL
# Method: Lysates: The lysates were prepared in 20 mM Tris-HCl, 1 mM EDTA and 1 mM β-mercaptoethanol at pH 7.4 and homogenized using a Polytron homogenizer three times for a period of 10 s followed by sonication, after which the lysates were cleared by centrifugation at 20,000 g for 10 minutes. Lysates were diluted (1:100) in Enolase enzymatic activity buffer as mentioned above. […] The lysates were then centrifuged at 20,000 g for 10 minutes. Supernatant and pellet were then separated and NuPage LDS Sample buffer (Life Technologies # NP0007) was added.
# As an additional test of SF2312 binding to the enolase protein, ligand-induced thermal shift assays were performed on cell lysates under the same conditions as we performed the enzymatic assay (Martinez Molina, et al., 2013). The principal of the assay is that heat-denatured proteins precipitate out of solution when their hydrophobic core is exposed. As a result, heat denatured proteins disappear from the lysate after centrifugation, whereas native properly folded proteins remain in solution. The levels of specific proteins in the supernatant, such as non-denatured proteins, are followed by immunoblotting as a function of increasing temperature.
# [4] = system: D423 overexpressing ENO2; assay: Sensitivity of D423 cells with re-expression of ENO2; type: cell-based, human
# Method: Total cell number was quantified by Hoechst 33342 (Cat# H3570; Invitrogen). Apoptotic cells were counted by staining with propidium iodide. Apoptotic cells become permeable to propidium iodide while live cells are not stained. On the day of apoptosis survey, old media was removed and each well was filled to 100 μl with fresh media. Hoechst and propidium iodide were mixed in 1:100 PBS and 10 μl of the mixture was added in each well gently without touching the cells for a final dilution of 1:1000 from stock. Plates were then incubated at 37° C. for 2 hours. Image capture and quantification was done by High Content Screening System—Operetta (Perkin Elmer).
# Cell proliferation of glioma cell lines was assayed either through crystal violet staining or by live-cell confluence measurements with the IncuCyte (Essen BioScience). […] Dye extraction was performed using 10% acetic acid solution, and absorbance was read at 595 nm. Apoptotic cells were counted by staining with YO-PRO®-1 Iodide (491/509, Life Technologies, Y3603). […] Total cell number was quantified by Hoechst 33342 (Cat# H3570 Invitrogen). […] Image capture and quantification was done by High Content Screening System—Operetta (Perkin Elmer). ATP content was measured with the luciferase/luciferin CellTiter-Glo® assay. […]
# [5] = system: ATP levels in D423 ENO1-deleted glioma cells; assay: ATP content (CellTiter-Glo); type: cell-based, human; details: 8 hours of treatment
# Method: (§1) Cell proliferation of glioma cell lines was assayed either through crystal violet staining or by live-cell confluence measurements with the IncuCyte (Essen BioScience). Growth curves using the IncuCyte were generated by confluence imaging every 4 hours with duplicate replicates with an initial seeding of 1500 cells/well in 96-well plates. At the indicated time point, cells were fixed with 10% formalin and stained with crystal violet. Dye extraction was performed using 10% acetic acid solution, and absorbance was read at 595 nm. Apoptotic cells were counted by staining with YO-PRO®-1 Iodide (491/509, Life Technologies, Y3603). Apoptotic cells become permeable to YO-PRO®-1 while live cells are not stained. Alternatively, Propidium Iodide was employed (Life Technologies) instead of YO-PRO. Total cell number was quantified by Hoechst 33342 (Cat# H3570 Invitrogen). Cells were seeded as 2×10^3 cells/well in 96-well plates and treated in the presence or absence of doxycycline. On the day of apoptosis survey, old media was removed and each well was filled to 100 μl with fresh media. Hoechst and YO-PRO®-1 were mixed in 1:100 PBS and 10 μl of the mixture was added in each well gently without touching the cells for a final dilution of 1:1000 from stock. Plates were then incubated at 37° C. for 2 hours. Image capture and quantification was done by High Content Screening System—Operetta (Perkin Elmer). ATP content was measured with the luciferase/luciferin CellTiter-Glo® assay. Briefly, 100 μl of CellTiter-Glo® assay media was added to 96-well plates containing 100 μl of media and cells. Lysis was achieved by the […] in the buffer and vigorous pipetting, and luminescence was determined using an Omega Luminescence Plate Reader (BMG Labtech). Results were expressed relative to vehicle treated control.
# [6] = system: Gli56 ENO1-deleted glioma cells; assay: Cell proliferation by Incucyte, ten days; type: cell-based, human
# Method: as §1, with “On the day of apoptosis survey, old media was removed and each well was filled to 100 μl with fresh media. Hoechst and YO-PRO®-1 were mixed in 1:100 PBS and 10 μl of the mixture was added in each well gently without touching the cells for a final dilution of 1:1000 from stock. Plates were then incubated at 37° C. for 2 hours.” left out, “Briefly, 100 μl of CellTiter-Glo® assay media was added to 96-well plates containing 100 μl of media and cells.” left out, “Results were expressed relative to vehicle treated control.” left out
smiles,measurement,setting,value
"O=C1C(P(=O)(O)O)CC(O)N1O (racemic) [SF2312, 3-dihydroxyphosphoryl-1,5-dihydroxy-2-pyrrolidone]",toxicity to ENO1-intact glioma cells,[1],non-toxic
same,hematocrit after treatment (drop from 45%),[2]; 100 mg/kg IV for longer than a week,29%
same,dose at which mild hemolytic anemia can be observed,[2]; as low as,50 mg/kg
same,shift in the thermal denaturation of ENO2,[3]; 1 μM inhibitor,> 7.5 °C and 7.5 °C
same,melting temperature of ENO2 with inhibitor,"[3]; 1 μM, from ~67.5 ° C. without inhibitor",> 75 °C
same,residual sensitivity to SF2312 relative to that of PhAH after re-expression of ENO2,[4],at least 4 times
same,concentration reducing ATP levels by >40%,[5],12.5 µM
same,fold more potent than PhAH at decreasing ATP levels,[5],~8 fold
same,fold more potent at inhibiting proliferation of Gli56 ENO1-deleted cells compared to ENO1-intact glioma lines,[6],≤ 128 fold
